The text below walks through data of publication PMC12724200 (mSphere, 2025).

The subject of this assay is M. bovis BCG. The format is cell-based, Mycobacterium bovis BCG.

Turning to `CC[C@@H](CO)NCCN[C@@H](CC)CO` [EB, ethambutol], the “Frequency of spontaneously generated drug-resistant colonies” value (shortened to “Frequency”) is listed as 4.5 × 10^−6.

As for `NNC(=O)c1ccncc1` [INH, isoniazid], the “Frequency” value is given as 2.0 × 10^−6.

Turning to `NC[C@H]1O[C@H](O[C@H]2[C@H](O)[C@@H](O[C@H]3O[C@H](CO)[C@@H](O)[C@H](N)[C@H]3O)[C@H](N)C[C@@H]2N)[C@H](O)[C@@H](O)[C@@H]1O` [KM, kanamycin], the “Frequency” value is given as 6.3 × 10^−6.

Turning to `CO[C@H]1/C=C/O[C@@]2(C)Oc3c(C)c(O)c4c(O)c(c(/C=N/N5CCN(C)CC5)c(O)c4c3C2=O)NC(=O)/C(C)=C\C=C\[C@H](C)[C@H](O)[C@@H](C)[C@@H](O)[C@@H](C)[C@H](OC(C)=O)[C@@H]1C` [RFP, rifampicin], the “Frequency” value is on record as 5.2 × 10^−9.

As for `[H]/N=C(/N)N[C@H]1[C@H](O)[C@@H](O)[C@H](O[C@@H]2O[C@@H](C)[C@](O)(C=O)[C@H]2O[C@@H]2O[C@@H](CO)[C@H](O)[C@@H](O)[C@@H]2NC)[C@@H](N/C(N)=N\[H])[C@@H]1O` [SM, streptomycin], the “Frequency” value was 3.1 × 10^−7.
